Measurements: patent US4757074A, “Piperazinyl benzyl acids having antihistamine activity” (Burroughs Wellcome Co., priority 1983, dated 1988)

Biological target: T1, longitudinal muscle from the intact ileum of guinea-pigs (response to histamine) (Cavia porcellus, UniProt P31389)
T1 construct: The longitudinal muscle was isolated from the intact ileum of guinea-pigs; from tissue; host or cells: longitudinal muscle of guinea-pig ileum (Hartley, male)
Experiment: In vitro antihistaminic activity (inhibition of histamine concentration-response in isolated ileum longitudinal muscle)
Parameters: species or system guinea-pigs (Hartley, male)
Conditions: negative log of the concentration which gives a significant antihistaminic effect; guinea-pig ileum longitudinal muscle; one hour incubation with test compound; Arunlakshana and Schild method; read-out: pA2 (converted)
Experimental: In vitro antihistaminic activity: The longitudinal muscle was isolated from the intact ileum of guinea-pigs (Hartley, male, 250-400 g) and placed in an organ bath under 300 mg tension. After one hour of equilibration, cumulative concentration-response curves (Van Rossum, J. M., Arch. Int. Pharmacodyn. Ther. 143, 299-330, 1963) to histamine were obtained. Following washing, the tissues were incubated for one hour with the test compound and then a second histamine concentration-response curve was run. Antihistaminic activity was determined as pA2 values by the method of Arunlakshana, O. and Schild, H. O. (Br. J. Pharmacol: 14, 48-58, 1959).

T1 sequence (P31389 whole entry): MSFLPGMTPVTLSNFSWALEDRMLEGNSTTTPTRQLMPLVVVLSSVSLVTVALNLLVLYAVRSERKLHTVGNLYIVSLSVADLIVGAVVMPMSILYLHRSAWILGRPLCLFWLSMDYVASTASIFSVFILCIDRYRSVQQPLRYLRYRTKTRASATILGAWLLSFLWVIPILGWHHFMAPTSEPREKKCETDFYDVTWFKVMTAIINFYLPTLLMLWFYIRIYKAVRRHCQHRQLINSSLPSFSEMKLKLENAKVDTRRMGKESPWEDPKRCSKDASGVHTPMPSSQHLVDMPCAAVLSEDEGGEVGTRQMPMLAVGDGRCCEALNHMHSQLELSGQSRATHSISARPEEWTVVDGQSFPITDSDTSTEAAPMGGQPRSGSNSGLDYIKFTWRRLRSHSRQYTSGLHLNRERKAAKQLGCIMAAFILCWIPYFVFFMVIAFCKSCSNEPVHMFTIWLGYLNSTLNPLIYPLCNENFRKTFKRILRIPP

Kb [nM] | Structure (SMILES)
501 | CN1CCN(C(c2ccc(Cl)cc2)c2cccc(/C=C/C(=O)O)c2)CC1 (stereo not drawn) [A, (E)-3-(4-Chloro-α-(4-methyl-1-piperazinyl)-benzyl)cinnamic acid]
398 | CN1CCN(C(c2ccc(Cl)cc2)c2cccc(C(=O)O)c2)CC1 (stereo not drawn) [B, 3-(4-Chloro-α-(4-methyl-1-piperazinyl)benzyl)benzoic acid]
2510 | CN1CCN(C(c2ccc(Cl)cc2)c2ccccc2C(=O)O)CC1 (stereo not drawn) [C, 2-(4-Chloro-α-(4-methyl-1-piperazinyl)benzyl)benzoic acid]
2510 | CN1CCN(C(c2ccc(Cl)cc2)c2ccc(C(=O)O)cc2)CC1 (stereo not drawn) [D, 4-(4-Chloro-α-(4-methyl-1-piperazinyl)benzyl)benzoic acid]
316 | COc1ccc(C(c2cccc(C(=O)O)c2)N2CCN(C)CC2)cc1 (stereo not drawn) [E, 3-(4-Methoxy-α-(4-methyl-1-piperazinyl)benzyl)benzoic acid]
158 | CN1CCN(C(c2ccc(Cl)cc2)c2cccc(OCC(=O)O)c2)CC1 (stereo not drawn) [F, 3-(4-Chloro-α-(4-methyl-1-piperazinyl)benzyl)phenoxyacetic acid]
1.58 | Cc1cccc(CN2CCN(C(c3ccc(Cl)cc3)c3cccc(OCC(=O)O)c3)CC2)c1 (stereo not drawn) [G, 3-(4-Chloro-α-(4-(3-methylbenzyl)-1-piperazinyl)benzyl)phenoxyacetic acid]
6.31 | CC(C)(C)c1ccc(CN2CCN(C(c3ccc(Cl)cc3)c3cccc(OCC(=O)O)c3)CC2)cc1 (stereo not drawn) [H, 3-(4-Chloro-α-(4-(4-tert-butylbenzyl)-1-piperazinyl)benzyl)phenoxyacetic acid]

Biological target: T1, longitudinal muscle from the intact ileum of guinea-pigs (response to histamine)
Experiment: not given
Conditions: literature value, R. B. Barlow, Introduction to Chemical Pharmacology, 2nd ed., p. 357, 1964; cited from earlier work

Structure (SMILES) | pA2
CN1CCN(C(c2ccccc2)c2ccc(Cl)cc2)CC1 (stereo not shown) [Chlorcyclizine, 1-(4-Chlorobenzhydryl)-4-methylpiperazine] | 8.6

System: not given
Experiment: not given
Conditions: clinical use, most patients; Goodman and Gilman, 4th ed., p. 640, 1970; cited from earlier work

Structure (SMILES) | sedation and drowsiness
CN1CCN(C(c2ccccc2)c2ccc(Cl)cc2)CC1 (stereo not shown) [Chlorcyclizine, 1-(4-Chlorobenzhydryl)-4-methylpiperazine] | produces sedation and drowsiness in varying degrees in most patients
